Molecular target: T1, Bifunctional epoxide hydrolase 2 (Homo sapiens, UniProt P34913)
T1 sequence (P34913 whole entry): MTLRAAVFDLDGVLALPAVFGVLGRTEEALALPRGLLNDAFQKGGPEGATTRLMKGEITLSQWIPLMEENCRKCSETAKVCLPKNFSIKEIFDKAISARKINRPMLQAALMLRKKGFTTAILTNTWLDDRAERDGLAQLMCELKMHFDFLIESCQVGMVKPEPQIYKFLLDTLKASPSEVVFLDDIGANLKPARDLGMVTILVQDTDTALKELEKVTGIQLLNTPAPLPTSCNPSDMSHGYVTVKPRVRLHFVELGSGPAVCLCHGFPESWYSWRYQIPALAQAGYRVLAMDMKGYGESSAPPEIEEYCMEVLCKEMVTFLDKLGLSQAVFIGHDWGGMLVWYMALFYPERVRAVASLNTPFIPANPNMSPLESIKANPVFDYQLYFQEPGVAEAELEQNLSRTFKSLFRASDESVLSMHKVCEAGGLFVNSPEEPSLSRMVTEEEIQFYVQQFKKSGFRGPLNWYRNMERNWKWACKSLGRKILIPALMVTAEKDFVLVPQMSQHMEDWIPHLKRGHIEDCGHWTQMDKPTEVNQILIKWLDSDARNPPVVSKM
Assay: Enzyme Assay: Test compounds (1.6 mM stock in DMSO) were diluted 3 fold in series in DMSO and 0.8 microliters per well were added into 384-well NBS microplates (Corning). Resorufin epoxide substrate (20 uM stock in DMSO) was diluted to 5 μM with Assay Buffer (25 mM bis-Tris-HCl, pH 7.0, 1 mM DTT and 0.2 mg/ml BSA) and 8 microliters per well were added to the microplates. Thirty two microliters per well of 3.6 nM soluble epoxide hydrolase in Assay Buffer was then added. The samples were incubated at room temperature and assay signals were monitored by reading excitation at 530 nm and emission fluorescence at 590 nm on a PlateVision (Zeiss) reader every 2 minutes for 8 times.

- IC50: 79 nM
SMILES: O=C(NCc1ccc(Cl)cc1Cl)N1CC2(C1)CN(S(=O)(=O)c1ccccc1)C2

Source: ChEMBL document CHEMBL3886262, “Azetidine compounds, compositions and methods of use” (2015)
